Here are results for six molecules from publication PMC7317715, “Discovery of a novel fluorescent chemical probe suitable for evaluation of neuropilin‐1 binding of small molecules” (Drug Development Research, 2020).

Assay [1] has as its system NRP1. Also on record: method as in Powell et al., 2018. Particulars: ref Powell et al., 2018; cited from earlier work.
For assay [2], the target named is T1, NRP1 b1 (Homo sapiens, UniProt O14786).
T1 construct: Ligands were evaluated against the NRP1‐b1 domain
T1 sequence (O14786 275-424 limits assumed): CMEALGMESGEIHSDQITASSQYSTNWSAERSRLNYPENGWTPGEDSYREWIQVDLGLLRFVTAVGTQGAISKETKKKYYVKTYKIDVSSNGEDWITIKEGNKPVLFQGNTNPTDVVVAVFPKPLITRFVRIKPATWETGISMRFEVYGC
As to the kind of experiment: FP competition experiment with DS108 probe. In kind it is binding. Particulars: for IC50: FP competition, DS108 0.75 μM, NRP1 b1 7.5 μM, PBS‐P buffer; for Ki: calculated from FP competition IC50 using kinetic equations (Nikolovska‐Coleska et al., 2004). As for the experimental part:
Competition experiments: FP samples were prepared in the following order—ligand in PBS‐P buffer (20 μl), NRP1‐b1 protein ([…], 20 μl) in PBS‐P buffer, and DS108 probe (1,500 nM, 40 μl) in PBS‐P buffer. FP was measured and normalized to experiment controls (buffer + probe, buffer + probe + protein) using a BMG Labtech PHERAstar® plate reader (filter settings: 485 nm [excitation] and 520 nm [emission]). Background FP was blanked using a PBS‐P buffer only control.
Data processing: raw data were processed using OriginPro curve fitting software to obtain the IC50s and error values shown. A dose–response curve fitting model was utilized for the competition experiments. A web based IC50‐to‐Ki converter that computes Ki values from experimentally determined IC50 values was employed (Cer, Mudunuri, Stephens, & Lebeda, 2009) (https://bioinfo-abcc.ncifcrf.gov/IC50_Ki_Converter/index.php) Each experiment was conducted in triplicate and repeated two times. The statistical reproducibility of this assay was evaluated using the z factor equation (Scheme 2).

Assay [3] concerns NRP1. Particulars: NRP1 inhibition using bt‐VEGF165 binding; ref Jia et al., 2006; read-out: Literature IC50; cited from earlier work.
For assay [4], the target named is T2, NRP1‐b1 domain (Homo sapiens, UniProt O14786).
T2 construct: Ligands were evaluated against the NRP1‐b1 domain
T2 sequence (O14786 275-424 limits assumed): T1 sequence (O14786 275-424 limits assumed)
As to the kind of experiment: SPR binding of fluorescent probes to immobilised NRP1-b1. Particulars: for Kd: NRP1‐b1 on CM5 chip, 3% DMSO in PBS‐P, 1:1 binding model, read-out: KD (μM, affinity); for Observed Rmax (% of theoretical): experimentally observed Rmax as percentage of theoretical Rmax (quality control). As for the experimental part:
All SPR analysis was performed on a BIAcore T200 system using series S CM5 sensor chips. The […] SPR is effectively a stop‐flow instrument, and dissociation from the immobilized protein is initiated by the absence of analyte (ligand) when buffer alone is perfused, this setup allows the determination of on and off rates and equilibrium binding constants. Relatively high DMSO concentrations are normal for SPR experiments to limit solubility problems and minimize nonspecific aggregation. Extensive DMSO controls are included and automatically subtracted from the sensorgrams. Sensorgrams were double referenced by subtracting the response on a reference flow cell and a blank sample. Ligands were evaluated against the NRP1‐b1 domain. NRP1‐b1 was covalently attached to a CM5 chip via amine coupling (Powell et al., 2018) with a surface density of 2,000–3,000 RU. Binding of novel fluorescent probes (0.4–100 μM) were analyzed by multicycle sequential injections (30–120 s association time) followed by undisturbed dissociation (30–60 s). A regeneration step was not used. Peptide stocks were dissolved in dimethyl sulfoxide (DMSO), and the final sample solutions for kinetic affinity experiments contained 3% DMSO in 1× phosphate‐buffered saline P20 buffer (PBS‐P, Cat no 28995084, GE Healthcare Ltd.). DMSO solvent effects were corrected for with eight calibration solutions ([…] in PBS‐P). Equilibrium constants (KD) were calculated using either kinetic or affinity models, assuming simple 1:1 (Langmuir) binding. Data processing and analysis were performed using BIAevaluation and OriginPro software. The theoretical Rmax (the maximal feasible signal between a ligand—analyte pair) for each compound/protein pair was calculated using Scheme 1 (Marquart, 2017).
The experimentally observed Rmax was then calculated as a percentage of the theoretical Rmax as a quality control measure.
Background: SPR reads the build-up and loss of mass on a sensor chip optically.

The target of assay [5] is T1, NRP1 b1. As to the kind of experiment: FP saturation binding / protein titration (dynamic range). Particulars: for Kd: KD derived from the 50% signal maximum; for Dynamic window (mP): FP, probe + NRP1‐b1 vs probe only, probe and NRP‐b1 conc per probe as in Table 2. As to the method: Initial experiments were performed using PBS‐P buffer with 3% DMSO in a final volume of 80 μl. The reaction plates or tubes were kept on ice during pipetting.
Saturation binding: dynamic range and protein titration experiments were performed at probe concentrations selected with guidance from in‐house SPR analysis, literature KD of the untagged compound, and an FP technical resource guide (Invitrogen, 2006). The NRP‐b1 concentrations ranged from 10 nM to 30 μM.

For assay [6], the target named is 5-Flu-RPARPAR. As to the kind of experiment: SPR.
The target of assay [7] is 5-Flu-RPARPAR.

Read-outs that look alike come from different tables or passages of the source. Bridge positions count the residues as written; N and C are the ends. Peptide text beside a SMILES is read from it.

In the case of `N=C(N)NCCC[C@H](NC(=O)c1sccc1NS(=O)(=O)c1cc(-c2ccc(CN)cc2)cc2c1OCC2)C(=O)O` [EG01377], in assay [1], the NRP1 antagonistic properties entry is listed as “submicromolar” and the “selectivity for NRP1 over NRP2 receptor” value was “selective for NRP1”. Also, in assay [2], the IC50 amounted to 16.8 ± 1.25 µM and the inhibition constant (Ki) was 7.39 µM.

With `CC(C)C[C@@H]1NC(=O)[C@H](CCC(N)=O)NC(=O)[C@H](CCCNC(=N)N)NC(=O)[C@H](C)NC(=O)[C@H](CCCCN)NC(=O)[C@@H]2CSSC[C@@H](C(=O)N[C@@H](CC(=O)O)C(=O)N[C@@H](CCCCN)C(=O)N3CCC[C@H]3C(=O)N[C@@H](CCCNC(=N)N)C(=O)N[C@@H](CCCNC(=N)N)C(=O)O)NC(=O)[C@H](CCCNC(=N)N)NC(=O)[C@H](CSSC[C@H](NC(=O)[C@@H](N)CO)C(=O)N[C@@H](CCCCN)C(=O)N[C@@H](CC(N)=O)C(=O)N[C@@H]([C@@H](C)O)C(=O)N[C@@H](CC(=O)O)C(=O)N[C@@H](CO)C(=O)N[C@@H](CCCNC(=N)N)C(=O)N2)NC(=O)[C@H]([C@@H](C)O)NC(=O)[C@H](CCCNC(=N)N)NC(=O)[C@H](CCC(=O)O)NC(=O)[C@H](CC(N)=O)NC(=O)[C@H](CC(C)C)NC(=O)[C@H](CCC(=O)O)NC1=O` [EG03287] (H-SCKNTDSRCKARQLELNERTCRCDKPRR-OH; disulfide 2-21, 9-23; N-terminus and C-terminus assumed), the IC50 in assay [3] is 1.2 µM; in assay [2] it was 5.77 ± 0.87 µM. For the same molecule, the Ki in assay [2] was 2.47 µM.

Regarding `N=C(N)NCCC[C@H](NC(=O)c1sccc1NS(=O)(=O)c1cc(-c2ccc(CNC(=O)CCOCCOCCOCCNC(=O)c3ccc(-c4c5ccc(=O)cc-5oc5cc(O)ccc45)c(C(=O)O)c3)cc2)cc2c1OCC2)C(=O)O` [probe 3, (S)‐5‐((1‐(4‐(7‐(N‐(2‐((1‐carboxy‐4‐guanidinobutyl)carbamoyl)thiophen‐3‐yl)sulfamoyl)‐2,3‐dihydrobenzofuran‐5‐yl)phenyl)‐3‐oxo‐6,9,12‐trioxa‐2‐azatetradecan‐14‐yl)carbamoyl)‐2‐(6‐hydroxy‐3‐oxo‐3H‐xanthen‐9‐yl)benzoic acid], in assay [4], the Kd was 24.6 ± 6.3 µM and the “Observed Rmax (% of theoretical)” value came out at 77%. In addition, the affinity in assay [5] (FP protein titration), expressed as Kd, was 4.61 ± 0.19 µM. In assay [5], the “Dynamic window (mP)” value worked out at 30.7 mP.

As to `N=C(N)NCCC[C@H](NC(=O)c1sccc1NS(=O)(=O)c1cc(-c2ccc(CNC(=O)CCOCCOCCOCCOCCOCc3cn(CCCNC(=O)c4ccc5c(c4)C(=O)OC54c5ccc(O)cc5Oc5cc(O)ccc54)nn3)cc2)cc2c1OCC2)C(=O)O` [probe 4, (3‐((5‐(4‐(1‐(1‐(3‐(3′,6′‐dihydroxy‐3‐oxo‐3H‐spiro(isobenzofuran‐1,9′‐xanthene)‐5‐carboxamido)propyl)‐1H‐1,2,3‐triazol‐4‐yl)‐17‐oxo‐2,5,8,11,14‐pentaoxa‐18‐azanonadecan‐19‐yl)phenyl)‐2,3‐dihydrobenzofuran)‐7‐sulfonamido)thiophene‐2‐carbonyl)‐L‐arginine], in assay [4], the Kd is 3.3 ± 0.2 µM and the “Observed Rmax (% of theoretical)” value is given as 43%. Also, binding in assay [5] (FP protein titration) was characterised by a dissociation constant (Kd) of 0.62 ± 0.098 µM. Further, the “Dynamic window (mP)” value in assay [5] was determined as 5.2 mP.

For the molecule RPARPAR [reference compound], in assay [4], the Kd is 69 ± 22 µM and the “Observed Rmax (% of theoretical)” value stood at 60.61%. For the same molecule, in assay [5], the “Dynamic window (mP)” value was found to be 22.6 mP. In assay [5] ([…]), this molecule returned a Kd of 1.88 ± 1.4 µM.

B1: NRP1 b1 b1 domain (protein)
chain: FKCMEALGMESGEIHSDQITASSQYSTNWSAERSRLNYPENGWTPGEDSYREWIQVDLGLLRFVTAVGTQGAISKETKKKYYVKTYKIDVSSNGEDWITIKEGNKPVLFQGNTNPTDVVVAVFPKPLITRFVRIKPATWETGISMRFEVYGCKIT
B1: the Kd in assay [6] is 69 µM; in assay [7] it was 1.88 µM.

As usually defined, the IC50 is the concentration at which inhibition is half-maximal. By Ki is commonly meant a measure of affinity in units of concentration, obtained from inhibition or displacement. What is called Kd is the constant that tells how readily two partners part at equilibrium.
